# Like-named read-outs stand apart in the source and are kept apart here.
# How the values were obtained:
# hADAM-19 = biological target: T1, hADAM-19 (Homo sapiens, UniProt Q9H013); experiment: Inhibition of α2-M cleavage by hADAM-19 (SDS-PAGE, silver staining); type: biochemical
# T1 construct: made in house
# T1 sequence (Q9H013 26-701 isoform Q9H013-2): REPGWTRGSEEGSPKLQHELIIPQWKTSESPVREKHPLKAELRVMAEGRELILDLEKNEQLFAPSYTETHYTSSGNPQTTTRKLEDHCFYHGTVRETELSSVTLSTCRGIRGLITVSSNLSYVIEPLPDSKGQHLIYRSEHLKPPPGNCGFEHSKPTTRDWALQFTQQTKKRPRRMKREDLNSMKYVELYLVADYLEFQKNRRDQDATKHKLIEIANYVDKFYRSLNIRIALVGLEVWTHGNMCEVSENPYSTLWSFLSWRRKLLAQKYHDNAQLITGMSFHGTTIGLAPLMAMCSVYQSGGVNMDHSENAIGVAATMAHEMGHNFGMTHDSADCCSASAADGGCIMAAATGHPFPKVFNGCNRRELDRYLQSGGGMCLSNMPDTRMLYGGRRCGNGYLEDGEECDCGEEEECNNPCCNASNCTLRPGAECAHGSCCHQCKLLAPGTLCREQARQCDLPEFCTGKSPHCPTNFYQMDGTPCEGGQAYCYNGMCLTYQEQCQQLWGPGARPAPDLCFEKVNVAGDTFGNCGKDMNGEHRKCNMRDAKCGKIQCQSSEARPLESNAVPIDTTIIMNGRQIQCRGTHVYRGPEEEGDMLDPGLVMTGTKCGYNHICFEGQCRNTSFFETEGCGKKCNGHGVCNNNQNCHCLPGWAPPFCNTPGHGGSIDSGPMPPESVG
# Protocol: 20 mM EDTA, 20 rmiM EGTA, 10 mM HgCl2, 1 miM TIMP-1,-2 (TIMP: hADAM-19 molar ratio was 100:1) and three commercial (CALBIOCHEM) small molecule human MMP inhibitors were used to inhibit α2-M cleavage by hADAM-19. […] Briefly, different concentrations of those inhibitors were mixed with 7.5 μl of hADAM-19 (50 μg/ml) in 22.9 μl of 1× HEPES buffer (50 mM HEPES, pH 7.5, 0.2 M NaCl, 10 mM CaCl2, 25 μM ZnCl, and 0.05%Brij-35) and incubated at room temperature (24° C.) for 2-hr, then 7.1 μl of substrate α2-M (0.2 unit/ml) were added and incubated at 37° C. for 20-hr. The reactions were stopped by adding 4× sample bufer and boiled immediately for 5 minutes. After SDS-PAGE, the protein bands were visualized by silver staining.
# [1] = test system: viruses containing the K103N mutation; conditions: cited from earlier work
# HIV = conditions: cited from earlier work
# [2] = summary statement, concentration not given
smiles,measurement,setting,value
"c1cnc2c(c1)ccc1cccnc12 [1,10-phenathroline]",blockage of hADAM-19 proteolytic activity against α2-M,hADAM-19; [2],blocked completely
CC(C)c1nc(COC(N)=O)n(Cc2ccncc2)c1Sc1cc(Cl)cc(Cl)c1 [CAPRAVIRINE],activity against K103N mutants,[1],activity against viruses containing the K103N mutation
"Nc1nc(=O)n([C@@H]2CS[C@H](CO)O2)cc1F [COVIRACIL, emtricitabine]",activity in vitro relative to lamivudine (3TC),HIV; greater activity than lamivudine (3TC),3- to 10 fold
O=C(O)CN(CCN(CC(=O)O)CC(=O)O)CC(=O)O [EDTA],blockage of hADAM-19 digestion of α2-M,hADAM-19,completely blocked
same,blockage of hADAM-19 proteolytic activity against α2-M,hADAM-19,blocked completely
O=C(O)CN(CCOCCOCCN(CC(=O)O)CC(=O)O)CC(=O)O [EGTA],blockage of hADAM-19 digestion of α2-M,hADAM-19; 20 mM inhibitor,completely blocked
same,blockage of hADAM-19 proteolytic activity against α2-M,hADAM-19; [2],blocked completely
CC[C@H]1C(=O)Nc2ccc(F)cc2N1C(=O)OC(C)C [GW-420867X],activity relative to HBY097,HIV; greater activity than HBY097,25 fold
same,activity against K103N mutants,[1],active against K103N mutants

# From US20020173640A1, “ADAM polynucleotides, polypeptides, and antibodies” (Human Genome Sciences, Inc., priority 1999, published 2002)
